The values that follow come from PMC5531494, “Target specificity, in vivo pharmacokinetics, and efficacy of the putative STAT3 inhibitor LY5 in osteosarcoma, Ewing's sarcoma, and rhabdomyosarcoma” (PLoS ONE, 2017).

Read-outs that look alike come from different tables or passages of the source.

One data set deals with T1, STAT6 (Homo sapiens, UniProt P42226).
T1 construct: endogenous in cells; host or cells: SJSA
Put plainly: Cytokine-induced STAT6 phosphorylation in SJSA cells, Western blot. The note with it: induced by IFN-γ, IFN-α, or IL-4. In kind it is cell-based. Here is the method:
(§1) Cell lysis, protein isolation and immunoblotting were performed as described previously. Twenty micrograms of protein were resolved using 4–12% Bis-Tris polyacrylamide gels. Gels were transferred to PVDF membranes and subjected to blocking and incubation with primary and secondary antibodies. The primary antibodies used in this study included: phospho-STAT3 (Tyr705, Cell Signaling, Boston, MA and Abcam, Cambridge, MA), total STAT3 (Cell Signaling and Abcam), phospho-STAT1 (Cell Signaling), total STAT1 (Cell Signaling), phospho-STAT2 (Cell Signaling), phospho-STAT4 (Cell Signaling), phospho-STAT6 (Cell Signaling), and GAPDH (Cell Signaling). Protein bands were detected using Western Lightning ® Plus Enhanced Chemiluminescence substrate (Perkin Elmer, Waltham, MA) and HyBlot CL ® Autoradiography film (Denville Scientific, Holliston, MA). The cytokines used in this study included: interferon gamma (IFN-γ, Cell Signaling), interferon alpha (IFN-α, Cell Signaling), interleukin-4 (IL-4, Cell Signaling), interleukin-6 (IL-6, Cell Signaling), and oncostatin M (OSM, Cell Signaling).
(§2) Fig 1 LY5 inhibits pSTAT3 in sarcoma cell lines. (A) The tumor cell lines RH30, EW8, and RD were treated with increasing concentrations of LY5 for 30 minutes. Cell lysates were collected for Western blotting of p-STAT3, total STAT3, and GAPDH. GAPDH was used as loading control. […]
Background: In western blotting, separated proteins are transferred to a membrane and probed.

A short description of data set [1]: PK in normal beagle dogs, oral capsules of LY5 powder. The class given is in vivo. The note with it: plasma, fasted; for AUC(0-inf): read-out: AUC inf-obs. As to the method: LY5 was evaluated in two normal purpose-bred beagle dogs (female 8.8 kg; male 11.2 kg) receiving a single dose of 1mg/kg LY5 IV then orally by gavage 7 days later to establish the PK profile and assess the spectrum of clinical toxicities associated with LY5 administration. The oral dosing was repeated in the fed and fasted state. The starting dose was determined based on allometric scaling from the maximal tolerated dose studies performed in mice. Dogs were washed out for 30 days, and then given a dose of 25 mg in a capsule orally, followed by a 50 mg capsule dose 14 days later. Full PK sampling was performed over 24 hours following each dose of LY5. The dogs received LY5 and were used for the PK analysis but were not euthanized upon conclusion of the study.
The liquid chromatography-mass spectrometry system utilized for these analyses consisted of a Dionex Ultimate 3000 RSLCnano High Performance Liquid Chromatography system and a Thermo Finnigan Quantum Ultras EMR mass spectrometer with an electrospray ionization source. Positive ionization mode was used for both LY5 and the internal standard, hesperetin. Plasma samples were collected and analyzed by the OSU James Comprehensive Cancer Center Pharmacoanalytical Shared Resource. Pharsight Phoenix WinNonlin software using non-compartmental analysis was used to generate PK parameters including maximum plasma concentration (Cmax), amount of time that drug is present at Cmax (Tmax), and total area under the curve (AUC). AUC all and AUC last were calculated by linear trapezoidal method of concentration-time curve up to the last measured point. AUC inf-obs was calculated by log-linear extrapolation of the terminal phase beyond the last collection time. Bioavailability (F) was calculated for IP and PO administration routes. Plasma stability and liver microsomal stability of LY5 were also assessed through this shared resource.

Data set [2] has as its target T2, STAT3 (Homo sapiens, UniProt P40763). Put plainly: Western blot of pSTAT3 in MG63.3 cells. Further details: endogenous in cells; host or cells: MG63.3. The class given is cell-based. Here is the method: Murine K7M2 and human MG63.3 OS cells were treated with increasing concentrations of LY5 for 2 hrs or 7 hrs. Western blotting was performed for pSTAT3 and STAT3 as indicated above to confirm inhibition of STAT3 phosphorylation in the cell lines prior to initiation of the PuMA assay. In addition, a sulforhodamine B colorimetric assay was performed to assess the cytotoxicity of LY5 in K7M2 and MG63.3 cells as previously described.
MG63.3 and K7M2 cell lines were exposed to increasing concentrations of LY5 to determine the IC50 (A). Western blot analysis was performed to determine the dose and duration of LY5 exposure required to inhibit STAT3 phosphorylation (B-C). Serial imaging of fluorescently labeled MG63.3 and K7M2 cells was performed in ex vivo LY5 treated lung sections (D). Metastatic burden was quantified by evaluation of the percent tumor burden (mean normalized fluorescent area). Data are reported as the mean ± standard deviation. In MG 63.3 experiment, p < 0.0001 Kruskal-Wallis test, p < 0.05 10 μM vs control at days 7, 14, and 21, 10 μM vs 1 μM at days 7, 14, and 21, 50 μM vs control at days 7, 14, and 21, and 50 μM vs 10 μM at days 7, 14, and 21 post-test Dunn. In K7M2 experiment, p < 0.0001 Kruskal-Wallis test, p < 0.05 10 μM vs control at days 14 and 21, 10 μM vs 0.1 μM at days 14 and 21, and 10 μM vs 1 μM at days 14 and 21, post-test Dunn.

Data set [3] deals with T2, STAT3. The data set is described as follows: IL-6 / OSM induced STAT3 phosphorylation in SJSA cells, Western blot. The class given is cell-based. On the set-up: endogenous in cells. The note with it: LY5 two hours then 50 ng/mL cytokine 30 minutes. Here is the method: as §1, §2
The mark [4] stands for this setting: female, Dog #2, 25 mg oral capsule.
Setting [5] is: female, Dog #2, 50mg oral capsule.
The mark [6] stands for this setting: male, Dog #1, 25 mg oral capsule.
The mark [7] stands for this setting: male, Dog #1, 50mg oral capsule.

T2 sequence (P40763 whole entry): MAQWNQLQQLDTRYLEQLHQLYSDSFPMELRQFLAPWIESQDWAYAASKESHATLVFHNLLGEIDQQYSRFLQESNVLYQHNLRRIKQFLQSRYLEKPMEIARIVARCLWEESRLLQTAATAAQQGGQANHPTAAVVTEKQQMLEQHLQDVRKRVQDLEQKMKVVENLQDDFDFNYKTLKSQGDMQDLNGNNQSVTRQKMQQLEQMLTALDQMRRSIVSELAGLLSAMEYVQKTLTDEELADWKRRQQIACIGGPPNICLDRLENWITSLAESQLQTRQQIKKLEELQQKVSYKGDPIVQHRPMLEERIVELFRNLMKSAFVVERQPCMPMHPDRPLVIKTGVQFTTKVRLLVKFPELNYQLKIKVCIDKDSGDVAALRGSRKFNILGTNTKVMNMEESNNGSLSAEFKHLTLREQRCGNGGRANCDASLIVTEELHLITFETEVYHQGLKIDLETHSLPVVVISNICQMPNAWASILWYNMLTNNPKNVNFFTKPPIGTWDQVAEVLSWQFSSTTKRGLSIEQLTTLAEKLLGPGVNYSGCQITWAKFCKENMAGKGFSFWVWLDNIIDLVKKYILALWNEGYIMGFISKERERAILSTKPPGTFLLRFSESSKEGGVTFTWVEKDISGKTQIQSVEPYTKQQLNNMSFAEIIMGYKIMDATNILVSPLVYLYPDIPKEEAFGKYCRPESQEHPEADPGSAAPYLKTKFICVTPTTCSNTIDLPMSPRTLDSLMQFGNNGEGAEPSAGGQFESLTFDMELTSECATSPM
T1 sequence (P42226 whole entry): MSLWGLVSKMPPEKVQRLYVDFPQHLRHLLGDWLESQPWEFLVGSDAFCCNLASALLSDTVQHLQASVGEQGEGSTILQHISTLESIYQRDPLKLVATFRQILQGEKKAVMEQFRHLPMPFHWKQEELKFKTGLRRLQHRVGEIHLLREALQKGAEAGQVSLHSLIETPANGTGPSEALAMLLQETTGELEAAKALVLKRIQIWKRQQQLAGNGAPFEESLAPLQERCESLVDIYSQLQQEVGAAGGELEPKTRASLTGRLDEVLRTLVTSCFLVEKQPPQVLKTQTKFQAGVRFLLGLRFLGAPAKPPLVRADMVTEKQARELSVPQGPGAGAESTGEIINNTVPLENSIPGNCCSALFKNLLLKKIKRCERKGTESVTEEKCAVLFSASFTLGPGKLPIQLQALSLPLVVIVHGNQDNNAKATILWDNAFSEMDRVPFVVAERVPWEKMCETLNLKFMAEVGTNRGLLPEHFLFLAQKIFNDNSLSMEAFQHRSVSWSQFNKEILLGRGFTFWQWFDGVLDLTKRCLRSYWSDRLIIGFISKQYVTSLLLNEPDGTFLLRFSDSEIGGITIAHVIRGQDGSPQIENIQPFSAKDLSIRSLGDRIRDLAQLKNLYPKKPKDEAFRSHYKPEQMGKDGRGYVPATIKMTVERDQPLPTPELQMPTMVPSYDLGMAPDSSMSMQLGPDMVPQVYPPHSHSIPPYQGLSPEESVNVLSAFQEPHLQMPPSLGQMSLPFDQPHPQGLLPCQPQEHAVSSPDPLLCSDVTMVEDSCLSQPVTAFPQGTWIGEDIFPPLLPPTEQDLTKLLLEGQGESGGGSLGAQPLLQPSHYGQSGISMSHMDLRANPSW

With `NS(=O)(=O)c1cccc2c1C(=O)C=C(Nc1cccnc1)C2=O` [LY5, 5,8-dioxo-6-(pyridin-3-ylamino)-5,8-dihydronaphthalene-1-sulfonamide], the “phosphorylation of STAT6” value at STAT6 was “did not inhibit”. Moreover, the exposure AUC(0-t) in data set [1] (setting [4]) was 2.51 µM·h; in data set [1] (setting [5]) it was 5.93 µM·h; in data set [1] (setting [6]), 2.62 µM·h; in data set [1] (setting [7]), 2.92 µM·h. The Tmax was 2 h in data set [1] (setting [4]), 4 h in data set [1] (setting [5]), 2 h in data set [1] (setting [6]) and 3 h in data set [1] (setting [7]). The AUC(0-inf) in data set [1] (setting [4]) turned out to be 2.53 µM·h; in data set [1] (setting [5]), 5.96 µM·h; in data set [1] (setting [6]) it was 2.69 µM·h; in data set [1] (setting [7]), 2.97 µM·h. Also, the Cmax in data set [1] (setting [6]) turned out to be 230 nM; in data set [1] (setting [7]), 840 nM; in data set [1] (Dog #2, 25 mg oral capsule), 516 nM; in data set [1] (Dog #2, 50mg oral capsule) it was 909 nM. For the same molecule, the “exposure time for effective inhibition of STAT3 phosphorylation” value at STAT3 [2] (MG 63.3, 1 μM LY5) is 0.5 h. In addition, the “concentration that decreased STAT3 phosphorylation” value at STAT3 [2] (MG63.3, 2 hrs treatment) turned out to be 1 µM. The “IL-6 and OSM induced STAT3 phosphorylation” value on STAT3 [3] was “effectively blocked”.

A word on the AUC(0-t): it is exposure summed from dosing to a finite time, without extrapolation to infinity. The term Tmax denotes the time from dosing to the highest level. As a reminder, the Cmax is the highest concentration seen after dosing.
